From ChEMBL document CHEMBL1136154, “Anti-atherogenic effects of 3,4-Dihydroxy hydrocinnamides” (Bioorg Med Chem Lett, 2003)

How the values were obtained:
Format in all cases: functional, organism-based
Oryctolagus cuniculus [1] = species on record: Oryctolagus cuniculus; assay: (§1) Total cholesterol-fed rabbit
Oryctolagus cuniculus [2] = species on record: Oryctolagus cuniculus; assay: (§2) HDL-cholesterol-fed rabbit
Oryctolagus cuniculus [3] = species on record: Oryctolagus cuniculus; assay: as §2; remark: listed apart in the source
Oryctolagus cuniculus [4] = species on record: Oryctolagus cuniculus; assay: Triglyceride after 0 week of cholesterol-fed rabbit
Oryctolagus cuniculus [5] = species on record: Oryctolagus cuniculus; assay: Triglyceride after 8 weeks of cholesterol-fed rabbit
Oryctolagus cuniculus [6] = species on record: Oryctolagus cuniculus; assay: as §1; remark: listed apart in the source

Compound COC(=O)C(Cc1c[nH]c2ccccc12)NC(=O)CCc1ccc(O)c(O)c1 (configuration not stated) has a Plasma lipids (Oryctolagus cuniculus [1]) of 50 mg/dL, a Plasma lipids (Oryctolagus cuniculus [2]) of 98 mg/dL and a Plasma lipids (Oryctolagus cuniculus [3]) of 32 mg/dL. The Plasma lipids (Oryctolagus cuniculus [4]) was 43 mg/dL, the Plasma lipids (Oryctolagus cuniculus [5]) was 104 mg/dL and the Plasma lipids (Oryctolagus cuniculus [6]) was 1070 mg/dL.

COC(=O)C(C)NC(=O)CCc1ccc(O)c(O)c1 (configuration not stated) was tested, and the Plasma lipids (Oryctolagus cuniculus [1]) was 53 mg/dL, the Plasma lipids (Oryctolagus cuniculus [2]) was 81 mg/dL and the Plasma lipids (Oryctolagus cuniculus [3]) was 37 mg/dL. For the same compound, the Plasma lipids (Oryctolagus cuniculus [4]) was 53 mg/dL, the Plasma lipids (Oryctolagus cuniculus [5]) was 116 mg/dL and the Plasma lipids (Oryctolagus cuniculus [6]) was 1080 mg/dL.
